The target in assay [1] is cAMP-dependent protein kinase catalytic subunit alpha (Homo sapiens, UniProt P17612).
The target of assay [2] is Ephrin type-A receptor 5 (Homo sapiens, UniProt P54756).
Assay [3] deals with Protein-tyrosine kinase 6 (Homo sapiens, UniProt Q13882).
Assay [4] addresses T1, Adenine phosphoribosyltransferase (Homo sapiens, UniProt P07741).
T1 sequence (P07741 whole entry): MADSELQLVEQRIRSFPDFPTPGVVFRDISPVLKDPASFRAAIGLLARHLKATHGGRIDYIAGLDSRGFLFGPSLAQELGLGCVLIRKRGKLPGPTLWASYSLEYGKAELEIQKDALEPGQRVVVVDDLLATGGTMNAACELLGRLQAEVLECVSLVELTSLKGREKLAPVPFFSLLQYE

For assay [5], the target named is Serine/threonine-protein kinase/endoribonuclease IRE2 (Homo sapiens, UniProt Q76MJ5).
Sequence of Serine/threonine-protein kinase/endoribonuclease IRE2 (Q76MJ5 whole entry): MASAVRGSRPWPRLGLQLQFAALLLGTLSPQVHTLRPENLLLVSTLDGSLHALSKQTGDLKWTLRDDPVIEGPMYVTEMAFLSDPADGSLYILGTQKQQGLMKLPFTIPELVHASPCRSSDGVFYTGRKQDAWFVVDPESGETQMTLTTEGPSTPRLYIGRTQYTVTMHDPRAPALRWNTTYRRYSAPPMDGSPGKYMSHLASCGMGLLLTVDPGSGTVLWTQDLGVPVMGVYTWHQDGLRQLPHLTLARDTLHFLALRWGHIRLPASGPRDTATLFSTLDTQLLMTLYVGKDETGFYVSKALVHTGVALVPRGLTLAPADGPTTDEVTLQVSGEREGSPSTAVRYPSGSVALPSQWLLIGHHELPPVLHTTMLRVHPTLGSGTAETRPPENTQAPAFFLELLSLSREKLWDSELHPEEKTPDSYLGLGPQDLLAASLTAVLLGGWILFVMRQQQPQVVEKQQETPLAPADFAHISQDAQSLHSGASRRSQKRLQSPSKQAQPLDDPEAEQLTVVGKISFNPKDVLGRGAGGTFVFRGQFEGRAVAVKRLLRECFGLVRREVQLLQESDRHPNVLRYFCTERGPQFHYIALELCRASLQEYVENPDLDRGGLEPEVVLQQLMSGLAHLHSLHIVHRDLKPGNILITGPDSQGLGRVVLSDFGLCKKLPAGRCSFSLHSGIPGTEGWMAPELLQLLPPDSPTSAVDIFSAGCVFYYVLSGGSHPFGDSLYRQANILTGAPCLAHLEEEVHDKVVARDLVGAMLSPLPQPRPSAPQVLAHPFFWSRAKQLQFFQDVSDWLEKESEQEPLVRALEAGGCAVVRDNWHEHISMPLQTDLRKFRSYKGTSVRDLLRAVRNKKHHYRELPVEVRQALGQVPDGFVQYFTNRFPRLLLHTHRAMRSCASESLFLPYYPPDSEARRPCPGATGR
In assay [6] the target is Serine/threonine-protein kinase N1 (Homo sapiens, UniProt Q16512).
In assay [7] the target is T2, Serine/threonine-protein kinase LATS1 (Homo sapiens, UniProt O95835).
T2 sequence (O95835 whole entry): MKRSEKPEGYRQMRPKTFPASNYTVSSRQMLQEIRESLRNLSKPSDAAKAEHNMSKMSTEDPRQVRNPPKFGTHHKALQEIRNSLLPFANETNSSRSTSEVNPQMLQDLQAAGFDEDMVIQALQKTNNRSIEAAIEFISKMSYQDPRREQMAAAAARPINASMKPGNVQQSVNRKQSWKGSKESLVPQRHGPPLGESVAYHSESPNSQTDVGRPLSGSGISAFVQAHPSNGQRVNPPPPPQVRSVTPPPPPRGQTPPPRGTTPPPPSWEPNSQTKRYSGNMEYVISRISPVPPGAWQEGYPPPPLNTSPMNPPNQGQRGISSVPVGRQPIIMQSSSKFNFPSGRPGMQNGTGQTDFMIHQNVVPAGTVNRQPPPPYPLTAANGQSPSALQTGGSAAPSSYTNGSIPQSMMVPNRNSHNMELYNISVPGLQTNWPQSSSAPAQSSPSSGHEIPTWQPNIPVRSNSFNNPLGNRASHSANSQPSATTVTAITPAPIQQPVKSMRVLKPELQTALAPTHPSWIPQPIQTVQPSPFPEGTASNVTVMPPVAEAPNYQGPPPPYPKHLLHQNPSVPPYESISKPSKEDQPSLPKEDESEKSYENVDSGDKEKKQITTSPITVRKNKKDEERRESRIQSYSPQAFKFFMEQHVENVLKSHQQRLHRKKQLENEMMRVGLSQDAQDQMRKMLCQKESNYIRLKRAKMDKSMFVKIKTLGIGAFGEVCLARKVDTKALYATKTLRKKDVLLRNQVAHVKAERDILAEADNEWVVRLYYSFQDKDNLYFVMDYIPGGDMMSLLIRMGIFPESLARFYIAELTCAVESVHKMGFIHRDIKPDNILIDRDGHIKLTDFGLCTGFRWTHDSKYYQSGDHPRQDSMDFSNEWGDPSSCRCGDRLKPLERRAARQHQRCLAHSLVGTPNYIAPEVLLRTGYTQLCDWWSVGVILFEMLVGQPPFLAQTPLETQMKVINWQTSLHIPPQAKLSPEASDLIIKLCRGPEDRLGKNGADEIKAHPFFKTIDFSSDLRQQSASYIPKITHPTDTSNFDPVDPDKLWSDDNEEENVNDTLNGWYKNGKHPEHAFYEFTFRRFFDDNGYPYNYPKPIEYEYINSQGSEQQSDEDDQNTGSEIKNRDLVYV

Assay [8] has as its target DNA topoisomerase 2-beta (Homo sapiens, UniProt Q02880).
The target of assay [9] is Cyclin-dependent kinase 7 (Homo sapiens, UniProt P50613).
Sequence of Cyclin-dependent kinase 7 (P50613 whole entry): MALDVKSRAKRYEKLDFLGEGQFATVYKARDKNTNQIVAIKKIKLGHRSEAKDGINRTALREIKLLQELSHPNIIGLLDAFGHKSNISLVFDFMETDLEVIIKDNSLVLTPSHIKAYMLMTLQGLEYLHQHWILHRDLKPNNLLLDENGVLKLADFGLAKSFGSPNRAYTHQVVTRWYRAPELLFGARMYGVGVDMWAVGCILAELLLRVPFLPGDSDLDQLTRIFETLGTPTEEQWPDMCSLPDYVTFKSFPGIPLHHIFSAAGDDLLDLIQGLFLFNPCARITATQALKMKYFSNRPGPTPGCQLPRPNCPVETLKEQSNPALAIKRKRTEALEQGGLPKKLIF
Assay [10] deals with T3, Serine/threonine-protein kinase TBK1 (Homo sapiens, UniProt Q9UHD2).
T3 sequence (Q9UHD2 whole entry): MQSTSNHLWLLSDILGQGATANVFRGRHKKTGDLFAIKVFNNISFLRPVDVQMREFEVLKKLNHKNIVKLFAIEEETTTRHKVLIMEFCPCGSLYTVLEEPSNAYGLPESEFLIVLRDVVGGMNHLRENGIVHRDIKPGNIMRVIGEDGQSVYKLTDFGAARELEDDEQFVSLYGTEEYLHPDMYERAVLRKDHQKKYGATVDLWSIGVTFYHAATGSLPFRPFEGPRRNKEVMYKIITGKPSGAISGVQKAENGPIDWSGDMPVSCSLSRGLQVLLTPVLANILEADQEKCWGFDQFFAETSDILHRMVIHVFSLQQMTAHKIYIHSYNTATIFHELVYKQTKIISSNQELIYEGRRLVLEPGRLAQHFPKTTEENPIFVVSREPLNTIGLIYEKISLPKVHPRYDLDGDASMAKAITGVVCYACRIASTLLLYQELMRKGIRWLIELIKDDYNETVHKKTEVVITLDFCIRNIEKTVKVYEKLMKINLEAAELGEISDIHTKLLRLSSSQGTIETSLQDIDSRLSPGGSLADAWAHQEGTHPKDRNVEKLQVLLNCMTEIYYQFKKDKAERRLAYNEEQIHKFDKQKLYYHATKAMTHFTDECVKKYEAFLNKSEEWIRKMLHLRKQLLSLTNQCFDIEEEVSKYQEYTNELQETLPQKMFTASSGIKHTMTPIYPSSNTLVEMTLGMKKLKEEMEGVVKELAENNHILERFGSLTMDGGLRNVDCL

For assay [11], the target named is 5'-AMP-activated protein kinase catalytic subunit alpha-1 (Homo sapiens, UniProt Q13131).
Sequence of 5'-AMP-activated protein kinase catalytic subunit alpha-1 (Q13131 whole entry): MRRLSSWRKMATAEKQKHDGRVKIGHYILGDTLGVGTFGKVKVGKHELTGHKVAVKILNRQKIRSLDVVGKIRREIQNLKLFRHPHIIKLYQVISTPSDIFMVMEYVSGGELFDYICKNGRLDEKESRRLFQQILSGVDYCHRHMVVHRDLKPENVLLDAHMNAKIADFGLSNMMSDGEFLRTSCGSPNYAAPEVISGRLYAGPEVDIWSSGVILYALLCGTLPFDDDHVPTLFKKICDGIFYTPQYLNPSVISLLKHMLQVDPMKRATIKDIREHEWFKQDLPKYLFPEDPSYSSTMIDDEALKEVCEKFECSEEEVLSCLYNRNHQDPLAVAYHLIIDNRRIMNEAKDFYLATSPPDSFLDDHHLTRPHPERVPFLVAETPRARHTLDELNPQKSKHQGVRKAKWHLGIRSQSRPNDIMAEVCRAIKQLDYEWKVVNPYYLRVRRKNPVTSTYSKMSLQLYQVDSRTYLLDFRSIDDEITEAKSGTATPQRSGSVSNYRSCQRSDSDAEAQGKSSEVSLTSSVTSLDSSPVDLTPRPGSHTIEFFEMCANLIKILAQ

Activity calls are given as the source filed them. Cut-off read from the data, not from the text of the source, for most assays here: actives have a measured Kd and inactives only a lower limit. Bounds are passed on as bounds.
Note: in the data inactive means no Kd found up to 30 µM.

Sequence of Ephrin type-A receptor 5 (P54756 whole entry): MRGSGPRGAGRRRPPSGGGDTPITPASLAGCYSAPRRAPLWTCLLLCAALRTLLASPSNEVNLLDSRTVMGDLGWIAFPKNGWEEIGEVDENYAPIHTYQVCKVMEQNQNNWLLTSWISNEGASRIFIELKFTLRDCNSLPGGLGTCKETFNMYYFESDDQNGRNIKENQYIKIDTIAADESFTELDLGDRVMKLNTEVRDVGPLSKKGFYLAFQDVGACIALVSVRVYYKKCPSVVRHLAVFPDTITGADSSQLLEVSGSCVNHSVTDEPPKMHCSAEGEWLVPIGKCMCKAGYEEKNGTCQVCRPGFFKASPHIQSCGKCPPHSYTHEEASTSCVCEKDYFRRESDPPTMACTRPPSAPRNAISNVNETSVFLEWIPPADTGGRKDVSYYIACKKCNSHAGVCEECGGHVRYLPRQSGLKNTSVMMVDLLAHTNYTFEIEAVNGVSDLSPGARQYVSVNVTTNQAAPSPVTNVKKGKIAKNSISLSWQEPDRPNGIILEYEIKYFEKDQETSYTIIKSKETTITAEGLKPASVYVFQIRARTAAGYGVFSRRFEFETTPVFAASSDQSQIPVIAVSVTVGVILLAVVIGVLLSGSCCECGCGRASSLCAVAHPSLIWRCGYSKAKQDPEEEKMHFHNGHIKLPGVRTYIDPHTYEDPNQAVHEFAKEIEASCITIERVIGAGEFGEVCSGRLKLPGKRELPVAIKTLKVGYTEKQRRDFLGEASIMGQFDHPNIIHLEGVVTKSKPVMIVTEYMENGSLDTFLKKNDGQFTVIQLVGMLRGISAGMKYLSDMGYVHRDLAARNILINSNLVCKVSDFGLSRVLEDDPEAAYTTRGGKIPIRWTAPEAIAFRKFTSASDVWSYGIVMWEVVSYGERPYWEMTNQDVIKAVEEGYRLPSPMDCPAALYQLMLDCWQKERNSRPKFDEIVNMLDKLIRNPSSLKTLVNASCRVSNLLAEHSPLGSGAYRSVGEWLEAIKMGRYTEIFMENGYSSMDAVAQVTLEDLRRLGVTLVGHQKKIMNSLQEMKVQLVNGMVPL
Sequence of DNA topoisomerase 2-beta (Q02880 whole entry): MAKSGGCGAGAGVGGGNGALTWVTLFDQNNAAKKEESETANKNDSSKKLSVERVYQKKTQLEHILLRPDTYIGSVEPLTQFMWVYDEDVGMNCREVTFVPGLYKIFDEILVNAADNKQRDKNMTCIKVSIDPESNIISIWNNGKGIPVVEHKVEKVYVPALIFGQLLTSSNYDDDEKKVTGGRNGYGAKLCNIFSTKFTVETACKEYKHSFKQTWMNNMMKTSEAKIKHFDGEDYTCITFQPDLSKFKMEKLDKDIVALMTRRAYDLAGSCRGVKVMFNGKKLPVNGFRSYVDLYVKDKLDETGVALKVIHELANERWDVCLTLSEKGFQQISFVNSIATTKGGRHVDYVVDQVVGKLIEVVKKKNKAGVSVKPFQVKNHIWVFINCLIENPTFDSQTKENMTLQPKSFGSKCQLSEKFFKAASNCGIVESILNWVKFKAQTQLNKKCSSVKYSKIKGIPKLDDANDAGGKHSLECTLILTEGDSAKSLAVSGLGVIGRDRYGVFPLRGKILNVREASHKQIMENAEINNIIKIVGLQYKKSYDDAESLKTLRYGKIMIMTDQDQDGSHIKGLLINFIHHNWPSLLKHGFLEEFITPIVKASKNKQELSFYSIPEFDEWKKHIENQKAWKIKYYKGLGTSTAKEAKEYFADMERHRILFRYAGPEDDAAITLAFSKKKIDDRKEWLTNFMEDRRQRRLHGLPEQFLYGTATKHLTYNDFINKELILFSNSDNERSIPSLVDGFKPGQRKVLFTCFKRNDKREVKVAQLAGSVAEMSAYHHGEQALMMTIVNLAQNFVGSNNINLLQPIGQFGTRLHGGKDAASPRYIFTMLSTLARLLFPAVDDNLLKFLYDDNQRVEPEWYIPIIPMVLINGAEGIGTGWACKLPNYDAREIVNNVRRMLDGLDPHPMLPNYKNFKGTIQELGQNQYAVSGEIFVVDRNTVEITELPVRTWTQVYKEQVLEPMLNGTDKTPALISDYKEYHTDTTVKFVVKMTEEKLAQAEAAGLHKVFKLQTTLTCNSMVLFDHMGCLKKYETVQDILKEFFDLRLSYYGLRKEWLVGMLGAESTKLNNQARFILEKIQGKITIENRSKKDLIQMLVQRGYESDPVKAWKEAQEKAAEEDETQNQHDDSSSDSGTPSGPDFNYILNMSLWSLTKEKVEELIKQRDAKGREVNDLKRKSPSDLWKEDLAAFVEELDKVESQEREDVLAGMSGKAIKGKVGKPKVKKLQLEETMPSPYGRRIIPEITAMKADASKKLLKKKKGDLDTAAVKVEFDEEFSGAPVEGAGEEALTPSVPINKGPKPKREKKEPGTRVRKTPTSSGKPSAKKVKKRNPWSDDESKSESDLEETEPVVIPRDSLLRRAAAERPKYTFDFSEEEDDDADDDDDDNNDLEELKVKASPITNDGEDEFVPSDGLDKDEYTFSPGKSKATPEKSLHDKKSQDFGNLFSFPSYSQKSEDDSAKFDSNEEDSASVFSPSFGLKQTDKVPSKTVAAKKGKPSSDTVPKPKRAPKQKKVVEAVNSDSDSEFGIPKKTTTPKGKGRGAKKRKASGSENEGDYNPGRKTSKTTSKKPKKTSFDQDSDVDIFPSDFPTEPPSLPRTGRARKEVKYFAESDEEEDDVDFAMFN
Sequence of Protein-tyrosine kinase 6 (Q13882 whole entry): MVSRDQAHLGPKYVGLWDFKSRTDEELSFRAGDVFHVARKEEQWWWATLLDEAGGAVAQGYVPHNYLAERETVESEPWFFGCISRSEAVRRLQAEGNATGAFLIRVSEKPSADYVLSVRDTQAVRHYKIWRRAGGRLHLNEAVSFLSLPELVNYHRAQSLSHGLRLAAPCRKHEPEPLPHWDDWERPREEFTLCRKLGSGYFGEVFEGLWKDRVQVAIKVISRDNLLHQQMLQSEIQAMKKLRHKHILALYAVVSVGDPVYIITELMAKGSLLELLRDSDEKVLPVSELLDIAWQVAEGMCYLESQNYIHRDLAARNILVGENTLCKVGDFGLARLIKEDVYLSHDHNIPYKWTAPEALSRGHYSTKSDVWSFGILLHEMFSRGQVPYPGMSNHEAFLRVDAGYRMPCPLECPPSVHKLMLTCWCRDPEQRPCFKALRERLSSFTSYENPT

Consider `C=CCn1c(=O)c2cnc(Nc3ccc(N4CCN(C)CC4)cc3)nc2n1-c1cccc(C(C)(C)O)n1` [ADAVOSERTIB], for which the Kd in assay [1], in [2], in [3], in assay [4], in assay [5] and in assay [6] was > 30 µM (inactive) each time. Also, the Kd in [7] and in assay [8] was > 30 µM (inactive) in each case.

Take `CCOc1ccn(-c2ccc(F)cc2)c(=O)c1C(=O)Nc1ccc(Oc2ccnc(N)c2Cl)c(F)c1` [BMS-777607]: the Kd in [9], in [1], in [2], in assay [3], in assay [4] and in assay [5] was > 30 µM (inactive) throughout. In addition, the Kd in assay [10], in assay [6], in [7] and in assay [8] was > 30 µM (inactive) throughout.

Turning to `CC1(C)CNc2cc(NC(=O)c3cccnc3NCc3ccncc3)ccc21` [MOTESANIB], the Kd in assay [4], in [5] and in assay [8] was > 30 µM (inactive) throughout.

For `CC1(COc2ccc3c(c2)ncn3-c2ccc3cccc(N4CCC(N)CC4)c3n2)COC1` [CRENOLANIB], the Kd in assay [1] was > 30 µM (inactive); in assay [2], > 30 µM (inactive); in [3] it was > 30 µM (inactive); in assay [4] it was 0.029 µM; in [5], > 30 µM (inactive); in assay [10] it was > 30 µM (inactive). Besides, the Kd in [11] is 1.25 µM (active); in assay [6] it was 0.165 µM (active); in assay [7], 2.77 µM (active); in [8], > 30 µM (inactive).

As to `COc1cc2c(N3CCN(C(=O)Nc4ccc(OC(C)C)cc4)CC3)ncnc2cc1OCCCN1CCCCC1` [TANDUTINIB], the Kd in assay [4], in [5] and in [8] was > 30 µM (inactive) throughout.

For the compound `O=S(=O)(c1cccc2cnccc12)N1CCCNCC1` [FASUDIL], the Kd in assay [2] is > 30 µM (inactive); in [3], > 30 µM (inactive); in assay [4], > 30 µM (inactive); in [5], > 30 µM (inactive); in [6] it was 0.841 µM (active); in assay [8] it was > 30 µM (inactive).

Consider `CNC(=O)c1ccc(Nc2ncc(C(F)(F)F)c(NCc3nccnc3N(C)S(C)(=O)=O)n2)cc1` [DEFACTINIB], for which the Kd in assay [1], in assay [2], in assay [3], in assay [4], in [5] and in [10] was > 30 µM (inactive) each time. Besides, the Kd was > 30 µM (inactive) in assay [11], > 30 µM (inactive) in assay [6], 9.05 µM (active) in assay [7] and > 30 µM (inactive) in [8].

As for `CCN(CCCOc1ccc2c(Nc3cc(CC(=O)Nc4cccc(F)c4)n[nH]3)ncnc2c1)CCOP(=O)(O)O` [BARASERTIB], the Kd in assay [2], in [3], in assay [4], in [5], in assay [6] and in [7] was > 30 µM (inactive) throughout. The Kd in assay [8] is > 30 µM (inactive).

Consider `CN(C)C/C=C/C(=O)Nc1cc2c(Nc3ccc(F)c(Cl)c3)ncnc2cc1O[C@H]1CCOC1` [AFATINIB], for which the Kd in assay [4], in [5] and in assay [8] was > 30 µM (inactive) in each case.

For `CCN1CCN(Cc2ccc(Nc3ncc(F)c(-c4cc(F)c5nc(C)n(C(C)C)c5c4)n3)nc2)CC1` [ABEMACICLIB], the Kd in assay [1], in assay [2], in assay [3], in [5], in [10] and in [11] was > 30 µM (inactive) in each case. The Kd in [6], in [7] and in assay [8] was > 30 µM (inactive) in each case.

Take `Cn1cnc2c(F)c(Nc3ccc(Br)cc3Cl)c(C(=O)NOCCO)cc21` [SELUMETINIB]: the Kd in assay [4], in [5] and in assay [8] was > 30 µM (inactive) throughout.

As for `Cn1c(=O)n(-c2ccc(C(C)(C)C#N)cc2)c2c3cc(-c4cnc5ccccc5c4)ccc3ncc21` [DACTOLISIB], the Kd in assay [2], in assay [3], in assay [4], in [5], in assay [6] and in assay [8] was > 30 µM (inactive) throughout.

As for `COc1cc2c(Oc3ccc4[nH]c(C)cc4c3F)ncnc2cc1OCCCN1CCCC1` [CEDIRANIB], the Kd in assay [3] is 1.22 µM (active); in assay [4], > 30 µM (inactive); in assay [5] it was > 30 µM (inactive); in [8], > 30 µM (inactive).

On to `C[C@]1(O)C[C@@H](c2nc(-c3ccc4ccc(-c5ccccc5)nc4c3)c3c(N)nccn32)C1` [LINSITINIB], for which the Kd in assay [9], in assay [2], in assay [5], in [10], in assay [6] and in assay [8] was > 30 µM (inactive) in each case.

Regarding `CN(c1ncccc1CNc1nc(Nc2ccc3c(c2)CC(=O)N3)ncc1C(F)(F)F)S(C)(=O)=O` [PF-00562271], the Kd was > 30 µM (inactive) in assay [1]; > 30 µM (inactive) in assay [2]; > 30 µM (inactive) in assay [3]; > 30 µM (inactive) in [4]; > 30 µM (inactive) in assay [5]; 7.96 µM (active) in assay [6]. The Kd in assay [7] and in assay [8] was > 30 µM (inactive) each time.

For `C[C@@]1(C(=O)Nc2ccc(F)nc2)CCCN1c1nc(Nc2cc(C3CC3)n[nH]2)c2cccn2n1` [BMS-754807], the Kd in assay [4] and in assay [8] was > 30 µM (inactive) each time.
